Like-named read-outs stand apart in the source and are kept apart here.
Tests used:
[1] = cited from earlier work
[2] = system: ATCC 29213 (MSSA strain); assay: MIC by broth microdilution susceptibility testing; format: cell-based; details: Staphylococcus aureus
Description: (§1) Susceptibility Testing. […] The strains tested were SA 494 and ATCC 29213.
(§2) Susceptibility testing. […] The treatment groups were compared to their commercial drug counterparts, both individually and in combination. […] SA 494 is the MRSA strain, and ATCC 29213 is the MSSA strain. The results were obtained as follows:
(§3) To test the effect of the presence of one drug that may enhance the MIC of the other in combination, combination MIC studies were performed. […] The results for MIC of liposomal CFZ in 0.5×the MIC of liposomal VAN were as follows:
(§4) However, liposomal VAN+CFZ [L (VAN+CFZ)] performed much better as compared to commercial VAN+CFZ (a mixture of non-liposomal antibiotics) in MRSA 494/MSSA 29213. The L(VAN+CFZ) has more than >2-4 fold improvement of MIC as compared to VAN+CFZ. Lower the MIC, the better is the MRSA killing.

[3] = system: SA 494 (MRSA strain); assay: MIC by broth microdilution susceptibility testing; format: cell-based; details: Staphylococcus aureus
Description: as §1, §2, §3, §4

[4] = system: MRSA 494 biofilm; assay: Biofilm disruption, pin lid method (Calgary biofilm device); format: cell-based, Staphylococcus aureus; details: FIG. 14, FIG. 15
Description: The Minimum Inhibitory […] (MIC) in presence of biofilm was determined using the pin lid method or Calgary biofilm device (Barber et al., Antimicrob Agents Chemother. 58(5):2989-92, 2014; De Oliveira et al., Int J Mol Sci. 17(9), 2016). This method is used for defining the biofilm MIC vs. antibiotic or combination of antibiotics.

[5] = system: ATCC 29213; assay: Time-kill analysis in 24 well plates (CLSI); format: cell-based, Staphylococcus aureus; details: tested at 1/2×MIC, 1×MIC, 24 h, FIG. 13B
Description: Time kill analysis was performed in 24 well plates according to CLSI guidelines (Patel 2017. M100: Performance Standards for Antimicrobial Susceptibility Testing, 27th Edition .224). Bactericidal activity was defined as >3 log CFU/ml reduction from baseline (initial inoculum). […] Lower the MIC, the better is the MRSA killing.

In the case of `Cc1nnc(SCC2=C(C(=O)O)N3C(=O)[C@@H](NC(=O)Cn4cnnn4)[C@H]3SC2)s1` [CCFZ, cefazolin], the “log P” value [1] is listed as −0.58, the MIC ([2]; MSSA 29213, Example 4 table, read-out: MIC values) is listed as 0.5 µg/mL and the MIC ([2]; strain 29213 (MSSA), broth microdilution, 24 h at 35° C., Example 1, read-out: MC Values (MIC)) is listed as 0.5 µg/mL. For the same compound, the MIC ([3]; MRSA 494, Example 4 table, read-out: MIC values) was greater than 64 µg/mL and the MIC ([3]; strain 494 (MRSA), broth microdilution, 24 h at 35° C., Example 1, read-out: MC Values (MIC)) was greater than 16 µg/mL.

In the case of `CN[C@H](CC(C)C)C(=O)N[C@H]1C(=O)N[C@@H](CC(N)=O)C(=O)N[C@H]2C(=O)N[C@H]3C(=O)N[C@H](C(=O)N[C@H](C(=O)O)c4cc(O)cc(O)c4-c4cc3ccc4O)[C@H](O)c3ccc(c(Cl)c3)Oc3cc2cc(c3O[C@@H]2O[C@H](CO)[C@@H](O)[C@H](O)[C@H]2O[C@H]2C[C@](C)(N)[C@H](O)[C@H](C)O2)Oc2ccc(cc2Cl)[C@H]1O` [CVAN, vancomycin], the “biofilm disruption (in words)” value [4] was “barely showed any anti-biofilm effect”, the time-kill result [5] was “grow above the initial inoculum at 24 h” and the MIC ([2]; 24 h, read-out: MC Values (MIC)) was 0.5 µg/mL. It also gave an MIC ([2]; read-out: MIC values) of 0.5 µg/mL, an MIC ([3]; MRSA, 24 h, read-out: MC Values (MIC)) of 1 µg/mL and an MIC ([3]; MRSA, read-out: MIC values) of 1 µg/mL.

Source: US12551527B2, “Drug delivery systems for treatment of infections” (Wayne State University, priority 2017, dated 2026)
